Tested on: 12 single or co-culture in vitro tissue models of primary cells
Test: Culture/co-culture cell model panel, extracellular biomarkers (DiscoveRx); on CCL2/MCP-1: reference of the scale not given here; on CXCL8/IL-8: reference of the scale not given here; on CXCL9/MIG: reference of the scale not given here; on IL-1alpha: reference of the scale not given here; on M-CSF: reference of the scale not given here; on PBMC Cytotoxicity: reference of the scale not given here; on SRB: reference of the scale not given here; on sTNF-alpha: reference of the scale not given here
Assay type: cell-based, human
Details: for B cell Proliferation / PBMC Cytotoxicity / Secreted IgG / sIL-2 / sIL-6 / sIL-17A / sIL-17F / sTNF-alpha: BT
[1] = HDF3CGF stimulated fibroblasts, 1.00E0 nM
[2] = HDF3CGF stimulated fibroblasts, 1.00E1 nM
[3] = HDF3CGF stimulated fibroblasts, 1.00E2 nM
[4] = HDF3CGF stimulated fibroblasts, 1.00E3 nM

## CN1c2ccc(-c3cncc(Cl)c3N3CCC4(CC3)CNC(=O)O4)cc2CS1(=O)=O [CMPD2]
BENo, 1.00E3 nM
  SRB: 0.003
  tPA: 0.049
  uPA: 0.021
BENo, 1.00E4 nM
  CCL26/Eotaxin-3: 0.048
  CD54/ICAM-1: -0.033
  CD87/uPAR: 0.057
  CXCL8/IL-8: 0.016
  CXCL9/MIG: 0.075
  CXCL10/IP-10: 0.073
  CXCL11/I-TAC: 0.025
  EGFR: 0.043
  HLA-DR: 0.040
  IL-1alpha: -0.020
  Keratin 8/18: 0.022
  MMP-1: 0.039
  MMP-9: 0.031
  PAI-I: -0.100
  SRB: 0.001
  tPA: 0.040
  uPA: -0.00475
BF4T, 1.00E0 nM
  CCL2/MCP-1: 0.022
  CCL26/Eotaxin-3: -0.032
  CD54/ICAM-1: -0.00361
  CD90: -0.036
  CD106/VCAM-1: 0.043
  CXCL8/IL-8: 0.040
  IL-1alpha: 0.007
  Keratin 8/18: -0.001
  MMP-1: 0.030
  MMP-3: 0.082
  MMP-9: 0.039
  PAI-I: -0.008
  SRB: 0.004
  tPA: 0.051
  uPA: 0.046
BF4T, 1.00E1 nM
  CCL2/MCP-1: -0.011
  CCL26/Eotaxin-3: -0.107
  CD54/ICAM-1: -0.027
  CD90: -0.009
  CD106/VCAM-1: 0.033
  CXCL8/IL-8: 0.048
  IL-1alpha: 0.020
  Keratin 8/18: -0.009
  MMP-1: 0.022
  MMP-3: 0.075
  MMP-9: 0.012
  PAI-I: 0.023
  SRB: -0.00108
  tPA: 0.047
  uPA: 0.034
BF4T, 1.00E2 nM
  CCL2/MCP-1: -0.025
  CCL26/Eotaxin-3: -0.086
  CD54/ICAM-1: -0.020
  CD90: 0.002
  CD106/VCAM-1: 0.042
  CXCL8/IL-8: 0.050
  IL-1alpha: 0.00136
  Keratin 8/18: 0.009
  MMP-1: 0.008
  MMP-3: 0.053
  MMP-9: 0.008
  PAI-I: 0.039
  SRB: 4.82e-5
  tPA: 0.063
  uPA: 0.022
BF4T, 1.00E3 nM
  CCL2/MCP-1: -0.016
  CCL26/Eotaxin-3: -0.102
  CD54/ICAM-1: -0.022
  CD90: -0.000476
  CD106/VCAM-1: 0.044
  CXCL8/IL-8: 0.047
  IL-1alpha: -0.00456
  Keratin 8/18: 0.007
  MMP-1: 0.015
  MMP-3: 0.034
  MMP-9: 0.024
  PAI-I: 0.026
  SRB: 0.00277
  tPA: 0.071
  uPA: 0.023
BF4T, 1.00E4 nM
  CCL2/MCP-1: -0.034
  CCL26/Eotaxin-3: -0.125
  CD54/ICAM-1: -0.043
  CD90: 0.000654
  CD106/VCAM-1: 0.043
  CXCL8/IL-8: 0.030
  IL-1alpha: -0.00143
  Keratin 8/18: -0.023
  MMP-1: 0.010
  MMP-3: 0.027
  MMP-9: -0.007
  PAI-I: -0.013
  SRB: 0.000752
  tPA: 0.037
  uPA: 0.017
1.00E0 nM
  B cell Proliferation: -0.010
  PBMC Cytotoxicity: 0.032
  Secreted IgG: 0.088
  sIL-2: 0.154
  sIL-6: 0.00536
  sIL-17A: -0.061
  sIL-17F: -0.213
  sTNF-alpha: 0.097
1.00E1 nM
  B cell Proliferation: -0.033
  PBMC Cytotoxicity: -0.030
  Secreted IgG: -0.163
  sIL-2: 0.264
  sIL-6: 0.057
  sIL-17A: 0.173
  sIL-17F: -0.239
  sTNF-alpha: 0.051
1.00E2 nM
  B cell Proliferation: -0.057
  PBMC Cytotoxicity: -0.030
  Secreted IgG: -0.186
  sIL-2: 0.109
  sIL-6: 0.035
  sIL-17A: 0.214
  sIL-17F: -0.485
  sTNF-alpha: 0.059
1.00E3 nM
  B cell Proliferation: -0.027
  PBMC Cytotoxicity: -0.033
  Secreted IgG: 0.074
  sIL-2: 0.068
  sIL-6: 0.046
  sIL-17A: 0.216
  sIL-17F: -0.463
  sTNF-alpha: 0.076
1.00E4 nM
  B cell Proliferation: -0.077
  PBMC Cytotoxicity: -0.046
  Secreted IgG: -0.114
  sIL-2: -0.00739
  sIL-6: -0.075
  sIL-17A: 0.256
  sIL-17F: -0.594
  sTNF-alpha: 0.009
[1]
  CCL2/MCP-1: -0.018
  CD54/ICAM-1: 0.007
  CD106/VCAM-1: -0.010
  CXCL8/IL-8: -0.008
  CXCL9/MIG: -0.000757
  CXCL10/IP-10: 0.037
  CXCL11/I-TAC: 0.014
  Collagen I: 0.035
  Collagen III: 0.042
  EGFR: 0.046
  M-CSF: -0.058
  MMP-1: 0.070
  PAI-I: 0.087
  Proliferation_72hr: -0.036
  SRB: 0.000177
  TIMP-1: 0.025
  TIMP-2: 0.118
[2]
  CCL2/MCP-1: -0.070
  CD54/ICAM-1: -0.021
  CD106/VCAM-1: 0.006
  CXCL8/IL-8: -0.045
  CXCL9/MIG: -0.030
  CXCL10/IP-10: 0.050
  CXCL11/I-TAC: -0.011
  Collagen I: 0.014
  Collagen III: 0.091
  EGFR: -0.013
  M-CSF: -0.075
  MMP-1: 0.050
  PAI-I: 0.006
  Proliferation_72hr: -0.171
  SRB: -0.008
  TIMP-1: -0.010
  TIMP-2: 0.117
[3]
  CCL2/MCP-1: -0.120
  CD54/ICAM-1: -0.051
  CD106/VCAM-1: 0.051
  CXCL8/IL-8: -0.095
  CXCL9/MIG: -0.077
  CXCL10/IP-10: 0.043
  CXCL11/I-TAC: -0.010
  Collagen I: 0.00565
  Collagen III: 0.086
  EGFR: -0.067
  M-CSF: -0.100
  MMP-1: 0.024
  PAI-I: -0.00168
  Proliferation_72hr: -0.240
  SRB: 0.000238
  TIMP-1: -0.059
  TIMP-2: 0.121
[4]
  CCL2/MCP-1: -0.156
  CD54/ICAM-1: -0.066
  CD106/VCAM-1: 0.036
  CXCL8/IL-8: -0.119
  CXCL9/MIG: -0.093
  CXCL10/IP-10: 0.039
  CXCL11/I-TAC: -0.012
  Collagen I: 0.040
  Collagen III: 0.054

From publication PMC5224920, “Assessing the mechanism and therapeutic potential of modulators of the human Mediator complex-associated protein kinases” (eLife, 2016)
